# Assays:
# Type in all cases: in vivo, human
# primary form of glaucoma = experiment: Ramiprilat formulation given to the eye of a patient with a primary form of glaucoma
# Description: In this example, a patient with a primary form of glaucoma is administered a topical formulation comprising ramiprilat to the eye. […] The patient's primary form of glaucoma is therefore treated by the […] formulation.
# In this example, a patient with a primary form of glaucoma is administered an injectable formulation comprising ramiprilat to the posterior chamber of the eye. […] The patient's primary form of glaucoma is therefore treated by the […] formulation.
# glaucoma [1] = experiment: Treatment of a patient diagnosed with glaucoma, one eye treated and the other left untreated
# From the text: (§1) A patient is diagnosed with glaucoma.
# A patient is diagnosed with glaucoma. A composition comprising the ACE inhibitor enalapril is directly applied to the vitreous surface of one eye while the other eye is left untreated.
# A patient is diagnosed with glaucoma. A composition comprising the angiotensin receptor blocker losartan is directly applied to the vitreous surface of one eye while the other eye is left untreated.
# as §1
# A patient is diagnosed with glaucoma. A composition comprising the ACE inhibitor enalapril is applied to the eye by intravitreal or intraocular injection while the other eye is left untreated.
# A patient is diagnosed with glaucoma. A composition comprising the angiotensin receptor blocker losartan is applied to the eye by intravitreal or intraocular injection while the other eye is left untreated.
# glaucoma [2] = experiment: Prevention of recurrence in a patient successfully treated for glaucoma, one eye treated and the other left untreated; conditions: untreated eye shows signs of recurrence
# From the text: A composition comprising the ACE inhibitor enalapril is directly applied to the vitreous surface of one eye while the other eye is left untreated.
# A composition comprising the angiotensin receptor blocker losartan is directly applied to the vitreous surface of one eye while the other eye is left untreated.
# A composition comprising the ACE inhibitor enalapril is applied to the eye by intravitreal or intraocular injection while the other eye is left untreated.
# A composition comprising the angiotensin receptor blocker losartan is applied to the eye by intravitreal or intraocular injection while the other eye is left untreated.
# [3] = injectable formulation to the posterior chamber of the eye
# [4] = composition applied by intravitreal or intraocular injection
# [5] = composition directly applied to the vitreous surface of one eye
Compound,capillary networks and capillary blood supply to the eye (primary form of glaucoma; [3]),intraocular pressure (primary form of glaucoma; [3]),optic nerve (primary form of glaucoma; [3]),capillary networks and capillary blood supply to the eye (primary form of glaucoma; topical formulation to the eye),intraocular pressure (primary form of glaucoma; topical formulation to the eye),optic nerve (primary form of glaucoma; topical formulation to the eye),"symptoms of glaucoma, treated eye versus untreated eye (glaucoma [1]; [4])","symptoms of glaucoma, treated eye versus untreated eye (glaucoma [1]; [5])","recurrence of glaucoma, treated eye versus untreated eye (glaucoma [2]; [4])","recurrence of glaucoma, treated eye versus untreated eye (glaucoma [2]; [5])"
Ramiprilat,grows capillary networks and increases the capillary blood supply,reduction in intraocular pressure,repair to the optic nerve,grows capillary networks and increases the capillary blood supply,reduction in intraocular pressure,repair to the optic nerve,–,–,–,–
CCCCc1nc(Cl)c(CO)n1Cc1ccc(-c2ccccc2-c2nn[nH]n2)cc1 [losartan],–,–,–,–,–,–,reduced symptoms of glaucoma,reduced symptoms of glaucoma,not develop glaucoma,not develop glaucoma
CCOC(=O)[C@H](CCc1ccccc1)N[C@@H](C)C(=O)N1CCC[C@H]1C(=O)O [enalapril],–,–,–,–,–,–,reduced symptoms of glaucoma,reduced symptoms of glaucoma,not develop glaucoma,not develop glaucoma
